Test results taken from patent US20240327353A1.
Where two headings read alike, the source gives them in different places.

Assays:
5-HT2AR = target: T1, 5-HT2AR (Homo sapiens, UniProt P28223); test: Radioligand binding (competitive displacement and saturation), cell membranes; settings: for Ki: pKi 5-HT2AR
T1 construct: host or cells: HEK293, transient
Description: (§1) Transfections were performed for 48 hours.

H1R = target: T2, H1R (Homo sapiens, UniProt P35367); test: as above
T2 construct: host or cells: CHO, transient
T2 sequence (P35367 whole entry): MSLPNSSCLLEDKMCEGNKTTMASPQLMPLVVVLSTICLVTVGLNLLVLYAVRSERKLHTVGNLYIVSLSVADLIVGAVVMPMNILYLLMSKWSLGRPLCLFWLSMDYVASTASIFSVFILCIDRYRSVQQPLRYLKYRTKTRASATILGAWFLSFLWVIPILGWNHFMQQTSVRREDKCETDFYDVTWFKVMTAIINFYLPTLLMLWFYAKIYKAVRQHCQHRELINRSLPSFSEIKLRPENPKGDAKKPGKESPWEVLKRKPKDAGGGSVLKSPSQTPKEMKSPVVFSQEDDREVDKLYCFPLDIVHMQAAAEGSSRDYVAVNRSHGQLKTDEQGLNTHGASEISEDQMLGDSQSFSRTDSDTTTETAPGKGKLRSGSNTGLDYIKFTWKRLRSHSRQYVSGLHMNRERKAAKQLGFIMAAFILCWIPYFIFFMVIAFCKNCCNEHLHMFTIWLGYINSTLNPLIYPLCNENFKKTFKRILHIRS
Description: as §1

5-HT2BR [1] = target: T3, 5-HT2BR (Homo sapiens, UniProt P41595); test: biochemical
T3 sequence (P41595 whole entry): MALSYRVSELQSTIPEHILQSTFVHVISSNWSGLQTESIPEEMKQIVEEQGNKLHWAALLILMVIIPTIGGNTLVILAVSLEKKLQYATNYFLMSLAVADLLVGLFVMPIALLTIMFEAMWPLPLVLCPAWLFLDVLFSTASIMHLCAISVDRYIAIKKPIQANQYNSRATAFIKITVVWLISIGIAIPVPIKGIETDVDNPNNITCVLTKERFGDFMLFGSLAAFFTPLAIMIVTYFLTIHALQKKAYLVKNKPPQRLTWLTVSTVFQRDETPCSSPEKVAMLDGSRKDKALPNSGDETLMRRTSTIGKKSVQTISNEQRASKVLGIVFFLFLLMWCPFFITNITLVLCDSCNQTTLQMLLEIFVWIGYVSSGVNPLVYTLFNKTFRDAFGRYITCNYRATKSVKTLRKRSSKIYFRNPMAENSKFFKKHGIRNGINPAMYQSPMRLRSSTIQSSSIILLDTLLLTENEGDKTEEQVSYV
Description: (§2) All cells were grown adherently in 10 cm plates in a humidified incubator kept at 37° C. and 5% carbon dioxide. […] Transient transfections were used to express 5-HT2A, 5-HT2C, α1A- or α1B-adrenergic receptors, whereas 5-HT7(a)Rs were stably expressed in HEK293 cells. H1Rs were transiently expressed, and D2Rs were stably expressed in CHO cells.
(§3) Transient transfections were performed on cells in the log growth phase (70-90% confluence). […] Each solution was mixed by inversion before combining, mixed by inversion again, and incubated at 37° C. for 30 minutes. Cells were then washed with 1 mL 1×PBS, followed by the gentle addition of 5 mL of transfection cocktail and 5 mL of cell culture medium with 5% (final) dialyzed FBS. Transfections were performed for 48 hours.
(§4) The affinity of ligands was determined via radioligand binding techniques using human recombinant receptors expressed in mammalian clonal cells.
(§5) Saturation binding experiments were performed on membranes expressing 5-HT2A, 5-HT2B, 5-HT2C, or H1Rs in triplicate across 8 concentrations. Competition binding assays were performed in at least triplicate with approximate Kd concentrations of radioligand. Total and nonspecific binding were determined in octet. […] Serial dilutions of unlabeled compound were made in assay buffer at 2.5× the final concentration using 10 mM DMSO stocks (final [DMSO]≤1%). Assays were terminated using rapid filtration via Whatman GF/B Fired Filters (Brandel Inc., Gaithersburg, MD) soaked in 0.3% (w/v) PEI, using an automated Tomtec Harvester 96 (Hamden, CT).
(§6) Filters were washed with 50 mM Tri-HCl (pH=7.4, 4° C.) before being oven dried and placed into scintillation vials containing 1 mL SX18-4 ScintiVerse^TM BD Cocktail (Fisher Chemical, Fair Lawn, NJ).
(§7) GraphPad Prism (La Jolla, CA) version 9.1.1 was used to analyze all experimental data in this work. To analyze data from saturation binding studies, the radioligand counts per minute (cpm) were normalized to fmol/mg protein bound and then fit the data to a ‘specific binding with hill slope’ model. For competitive radioligand displacement studies, a baseline correction was performed by subtracting the mean nonspecific binding value from the radioligand binding values with and without competitor to obtain specific binding values. Specific binding values were then normalized such that total binding in the absence of competitor represented 100% radioligand binding, and the radioactivity associated with each concentration of competitor was a percentage of total binding. The normalized data was then fit to the ‘one-site Fit Ki’ nonlinear regression model.

5-HT2CR = target: T4, 5-HT2CR (Homo sapiens, UniProt P28335); test: biochemical
T4 sequence (P28335 33-458): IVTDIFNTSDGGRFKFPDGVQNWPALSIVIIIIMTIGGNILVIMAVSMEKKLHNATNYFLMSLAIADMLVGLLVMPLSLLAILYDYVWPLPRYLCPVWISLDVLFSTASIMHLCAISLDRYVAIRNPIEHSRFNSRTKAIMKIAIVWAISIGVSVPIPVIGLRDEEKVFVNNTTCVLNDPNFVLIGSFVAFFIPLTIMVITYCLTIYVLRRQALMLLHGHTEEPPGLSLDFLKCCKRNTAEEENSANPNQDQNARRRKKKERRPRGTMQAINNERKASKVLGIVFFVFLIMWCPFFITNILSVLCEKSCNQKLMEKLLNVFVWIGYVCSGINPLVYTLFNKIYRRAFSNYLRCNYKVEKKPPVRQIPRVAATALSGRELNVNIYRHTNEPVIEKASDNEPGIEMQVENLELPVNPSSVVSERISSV
Description: as §2, §3, §4, §5, §6, §7

5-HT2BR [2] = target: T3, 5-HT2BR; test: Radioligand binding (competitive displacement and saturation), cell membranes
Description: as §2, §3, §4, §5, §6, §7

[3] = displacement of [^3H]ketanserin, mean of n independent experiments, ± SD where n ≥ 5
[4] = pKi H1R, displacement of [^3H]mepyramine, mean of n independent experiments, ± SD where n ≥ 5

T1 sequence (P28223 whole entry): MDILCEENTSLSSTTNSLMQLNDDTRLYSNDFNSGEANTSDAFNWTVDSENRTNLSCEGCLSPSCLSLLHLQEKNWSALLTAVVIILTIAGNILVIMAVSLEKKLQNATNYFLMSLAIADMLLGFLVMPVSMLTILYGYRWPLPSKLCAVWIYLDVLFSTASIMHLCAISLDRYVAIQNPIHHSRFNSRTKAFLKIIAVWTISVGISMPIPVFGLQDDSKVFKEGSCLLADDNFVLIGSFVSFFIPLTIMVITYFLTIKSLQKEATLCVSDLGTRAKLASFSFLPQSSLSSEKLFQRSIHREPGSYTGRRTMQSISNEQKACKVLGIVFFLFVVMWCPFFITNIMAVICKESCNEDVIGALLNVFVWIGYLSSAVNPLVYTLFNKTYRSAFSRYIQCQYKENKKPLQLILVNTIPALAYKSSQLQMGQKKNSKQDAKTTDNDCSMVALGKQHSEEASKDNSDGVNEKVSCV

Row | Structure (SMILES) | Ki (5-HT2BR [1]) | Ki (5-HT2CR) | Ki (5-HT2AR; [3]) | further results
1 | CN(C)[C@@H]1Cc2ccccc2[C@H](c2cccc(-c3cccs3)c2)C1 (single isomer, unassigned) [(2S,4S)-3c, Cis-4-(3-(thiophen-2-yl)phenyl)-N,N-dimethyl-1,2,3,4-tetrahydronaphthalen-2-amine] | 0.0891 µM | 0.224 µM | – | Ki (5-HT2AR): 0.151 µM; Ki (H1R; read-out: pKi H1R (converted)): 0.437 µM
2 | CN(C)[C@@H]1Cc2ccccc2[C@@H](c2cccc(-c3cccc(F)c3)c2)C1 [(2S,4R)-2h, Trans-4-(3′-fluoro-[1,1′-biphenyl]-3-yl)-N,N-dimethyl-1,2,3,4-tetrahydronaphtha-len-2-amine] | – | – | – | pKi 5-HT2AR (5-HT2AR; [3]): 9.22; pKi H1R (H1R; displacement of [^3H]mepyramine, mean of n independent experiments, ± SD where n ≥ 5): 8.96
3 | CN(C)c1ccc(-c2cccc(C3CC(N(C)C)Cc4ccccc43)c2)cc1 [(2R,4S)-2k, Trans-4-(4′-(dimethylamino)-[1,1′-biphenyl]-3-yl)-N,N-dimethyl-1,2,3,4-tetra-hydronaph-thalen-2-amine] | – | – | – | pKi 5-HT2BR (5-HT2BR [2]): 5.52^(2) 5.68-5.37 7.10 ± 0.21^(5) 7.40-6.82 5.97^(2) 6.08-5.87 5.97^(2) 6.09-5.86
4 | CN(C)[C@@H]1Cc2ccccc2[C@H](c2cccc(-c3ccc(Cl)cc3)c2)C1 (single isomer, unassigned) [(2R,4R)-3j, Cis-4-(4′-chloro-[1,1′-biphenyl]-3-yl)-N,N-dimethyl-1,2,3,4-tetrahydronaphthalen-2-amine] | – | 0.00933 µM | 0.0017 µM | pKi H1R (H1R): 7.84^(2) 7.89-7.78 8.84^(3) 8.86-8.82 ND 6.40^(3) 6.41-6.40
5 | CN(C)C1Cc2ccccc2C(c2cccc(-c3cccc(F)c3)c2)C1 [(2R,4S)-2h, Trans-4-(3′-fluoro-[1,1′-biphenyl]-3-yl)-N,N-dimethyl-1,2,3,4-tetrahydronaphtha-len-2-amine] | – | – | – | pKi 5-HT2AR (5-HT2AR; [3]): 8.03; Ki (H1R; [4]): 0.049 µM
6 | CN(C)[C@@H]1Cc2ccccc2[C@H](c2cccc(-c3ccccc3F)c2)C1 (single isomer, unassigned) [(2S,4S)-3g, Cis-4-(2′-fluoro-[1,1′-biphenyl]-3-yl)-N,N-dimethyl-1,2,3,4-tetrahydronaphthalen-2-amine] | – | – | 0.0407 µM | pKi 5-HT2BR (5-HT2BR [2]): 7.36^(2) 7.36-7.35 7.09^(3) 7.23-6.90 6.53^(3) 6.71-6.30 6.33^(2) 6.49-6.17
7 | CN(C)[C@@H]1Cc2ccccc2[C@H](c2cccc(Cl)c2)C1 (single isomer, unassigned) [(2S,4S)-3b, Cis-4-(3-chlorophenyl)-N, N-dimethyl-1,2,3,4-tetrahydronaphthalen-2-amine] | 0.389 µM | – | – | –
8 | CN(C)[C@@H]1Cc2ccccc2[C@H](c2cccc(Cl)c2)C1 (single isomer, unassigned) [(2R,4R)-3b, Cis-4-(3-chlorophenyl)-N, N-dimethyl-1,2,3,4-tetrahydronaphthalen-2-amine] | 0.115 µM | – | – | –
9 | CN(C)[C@@H]1Cc2ccccc2[C@@H](c2cccc(-c3ccco3)c2)C1 (single isomer, unassigned) [(2S,4R)-2d, Trans-4-(3-(furan-2-yl)phenyl)-N,N-dimethyl-1,2,3,4-tetrahydronaphthalen-2-amine] | – | – | – | Ki (H1R; [4]): 0.00339 µM
10 | CN(C)[C@@H]1Cc2ccccc2[C@H](c2cccc(F)c2)C1 (single isomer, unassigned) [(2S,4S)-3b′, Cis-4-(3-fluorophenyl)-N, N-dimethyl-1,2,3,4-tetrahydronaphthalen-2-amine] | 0.912 µM | 0.437 µM | – | –
11 | CN(C)[C@@H]1Cc2ccccc2[C@@H](c2cccc(-c3ccccc3)c2)C1 (single isomer, unassigned) [(2S,4R)-2f, Trans-4-([1,1′-biphenyl]-3-yl)-N,N-dimethyl-1,2,3,4-tetrahydronaphthalen-2-amine] | 0.0525 µM | 0.00331 µM | – | –
12 | CN(C)[C@@H]1Cc2ccccc2[C@@H](c2cccc(-c3ccncc3)c2)C1 (single isomer, unassigned) [(2S,4R)-2e, Trans-4-(3-(pyridin-4-yl)phenyl)-N,N-dimethyl-1,2,3,4-tetrahydronaphthalen-2-amine] | – | 0.0427 µM | 0.00741 µM | Ki (H1R; [4]): 0.00138 µM
13 | CN(C)[C@@H]1Cc2ccccc2[C@@H](c2cccc(-c3ccccc3)c2)C1 (single isomer, unassigned) [(2R,4S)-2f, Trans-4-([1,1′-biphenyl]-3-yl)-N,N-dimethyl-1,2,3,4-tetrahydronaphthalen-2-amine] | 0.112 µM | 0.0692 µM | – | –
14 | CN(C)[C@@H]1Cc2ccccc2[C@H](c2cccc(F)c2)C1 (single isomer, unassigned) [(2R,4R)-3b′, Cis-4-(3-fluorophenyl)-N, N-dimethyl-1,2,3,4-tetrahydronaphthalen-2-amine] | 0.447 µM | 0.251 µM | – | –
15 | CN(C)[C@@H]1Cc2ccccc2[C@H](c2cccc(-c3ccco3)c2)C1 (single isomer, unassigned) [(2R,4R)-3d, Cis-4-(3-(furan-2-yl)phenyl)-N,N-dimethyl-1,2,3,4-tetrahydronaphthalen-2-amine] | – | – | – | Ki (H1R; [4]): 0.0501 µM
16 | CN(C)c1ccc(-c2cccc([C@@H]3C[C@H](N(C)C)Cc4ccccc43)c2)cc1 (single isomer, unassigned) [(2R,4R)-3k, Cis-4-(4′-(dimethylamino)-[1,1′-biphenyl]-3-yl)-N,N-dimethyl-1,2,3,4-tetrahydro-naphthalen-2-amine] | – | – | – | pKi 5-HT2BR (5-HT2BR [2]): 5.52^(2) 5.68-5.37 7.10 ± 0.21^(5) 7.40-6.82 5.97^(2) 6.08-5.87 5.97^(2) 6.09-5.86
17 | CN(C)[C@@H]1Cc2ccccc2[C@@H](c2cccc(-c3ccc(Cl)cc3)c2)C1 [(2S,4R)-2j, Trans-4-(4′-chloro-[1,1′-biphenyl]-3-yl)-N,N-dimethyl-1,2,3,4-tetrahydronaphtha-len-2-amine] | – | 0.0049 µM | 0.000288 µM | Ki (H1R; [4]): 0.00145 µM
18 | CN(C)[C@@H]1Cc2ccccc2[C@H](c2cccc(-c3cccs3)c2)C1 (single isomer, unassigned) [(2R,4R)-3c, Cis-4-(3-(thiophen-2-yl)phenyl)-N,N-dimethyl-1,2,3,4-tetrahydronaphthalen-2-amine] | 0.105 µM | 0.024 µM | – | selectivity for 5-HT2ARs over 5-HT2B and H1Rs (5-HT2AR; one figure for both off-targets): 30-60 fold; Ki (5-HT2AR): 0.00355 µM; Ki (H1R; read-out: pKi H1R (converted)): 0.234 µM
19 | CN(C)[C@@H]1Cc2ccccc2[C@H](c2cccc(-c3ccc(Cl)cc3)c2)C1 (single isomer, unassigned) [(2S,4S)-3j, Cis-4-(4′-chloro-[1,1′-biphenyl]-3-yl)-N,N-dimethyl-1,2,3,4-tetrahydronaphthalen-2-amine] | – | 0.0977 µM | 0.0631 µM | –
20 | CN(C)C1Cc2ccccc2C(c2cccc(-c3ccccc3F)c2)C1 (single isomer, unassigned) [(2R,4S)-2g, Trans-4-(2′-fluoro-[1,1′-biphenyl]-3-yl)-N, N-dimethyl-1,2,3,4-tetrahydronaphtha-len-2-amine] | 0.0437 µM | – | 0.0309 µM | pKi H1R (H1R): 6.93^(2) 7.02-6.84 8.75^(4) 9.1-8.62 ND 6.54^(2) 6.67-6.40
21 | CN(C)[C@@H]1Cc2ccccc2[C@H](c2cccc(-c3cccc(F)c3)c2)C1 (single isomer, unassigned) [(2S,4S)-3h, Cis-4-(3′-fluoro-[1,1′-biphenyl]-3-yl)-N,N-dimethyl-1,2,3,4-tetrahydronaphthalen-2-amine] | – | – | – | pKi 5-HT2AR (5-HT2AR; [3]): 7.69; pKi H1R (H1R): 7.31 ^(2) 7.39-7.23 8.96^(3) 9.11-8.88 6.20^(2) 6.23-6.18 6.30 ± 0.10^(5) 6.42-6.14
22 | CN(C)c1ccc(-c2cccc([C@@H]3C[C@H](N(C)C)Cc4ccccc43)c2)cc1 (single isomer, unassigned) [(2S,4S)-3k, Cis-4-(4′-(dimethylamino)-[1,1′-biphenyl]-3-yl)-N,N-dimethyl-1,2,3,4-tetrahydro-naphthalen-2-amine] | – | – | – | pKi 5-HT2BR (5-HT2BR [2]): 5.52^(2) 5.68-5.37 7.10 ± 0.21^(5) 7.40-6.82 5.97^(2) 6.08-5.87 5.97^(2) 6.09-5.86
23 | CN(C)C1Cc2ccccc2C(c2cccc(-c3ccccc3F)c2)C1 (single isomer, unassigned) [(2S,4R)-2g, Trans-4-(2′-fluoro-[1,1′-biphenyl]-3-yl)-N, N-dimethyl-1,2,3,4-tetrahydronaphtha-len-2-amine] | 0.0813 µM | – | 0.000813 µM | Ki (H1R; [4]): 0.00178 µM
24 | CN(C)[C@@H]1Cc2ccccc2[C@H](c2cccc(Br)c2)C1 (single isomer, unassigned) [(2R,4R)-3a, Cis-4-(3-bromophenyl)-N, N-dimethyl-1,2,3,4-tetrahydronaphthalen-2-amine] | 0.0851 µM | 0.0575 µM | 0.0316 µM | –
25 | CN(C)C1Cc2ccccc2C(c2cccc(-c3ccc(Cl)cc3)c2)C1 [(2R,4S)-2j, Trans-4-(4′-chloro-[1,1′-biphenyl]-3-yl)-N,N-dimethyl-1,2,3,4-tetrahydronaphtha-len-2-amine] | – | 0.00708 µM | 0.00537 µM | Ki (H1R; [4]): 0.0145 µM
26 | CN(C)[C@@H]1Cc2ccccc2[C@H](c2cccc(-c3ccccc3)c2)C1 (single isomer, unassigned) [(2R,4R)-3f, Cis-4-([1,1′-biphenyl]-3-yl)-N,N-dimethyl-1,2,3,4-tetrahydronaphthalen-2-amine] | 0.117 µM | 0.0269 µM | – | –
